Assay results published in patent US20100256145A1, “USE OF KCNQ POTASSIUM CHANNEL OPENERS FOR REDUCING SYMPTOMS OF OR TREATING DISORDERS OR CONDITIONS WHEREIN THE DOPAMINERGIC SYSTEM IS DISRUPTED” (H. LUNDBECK A/S, priority 2007, published 2010).
Marks after values point to notes of the source that are not given here.

Legend:
[1] = system: social behaviours in the rat Tetradic Encounter test; experiment: Rat Tetradic Encounter test; settings: for % of time Agonistic behaviour: sum of defensive and aggressive behaviour
Method: Subjects. 5 week old male Wistar rats (Harlan, Germany) were used. The animals were housed in groups of four animals per cage and kept under a 12 h/12 h light dark rhythm (start of the dark phase at 2:00 p.m., CET), at 20° C. room temperature and 60% humidity. During the whole study, standard diet and tap water was provided ad libitum.
Experimental procedure. […] Therefore, half of the cage is the home territory of each animal. At test time, the wall is removed from the cage so that the animals can interact with each other for 15 minutes. Both animals are from the same test group. The cage is illuminated by dim red light. The test starts 1 hour after beginning of the dark phase. All animals are marked individually by means of black symbols on their back. Behaviour is registered by video. Each animal is tested once.
Analyses. In both the TE test and the MRI test, the portion of time (%) spent in non-social, friendly, defensive, aggressive or agonistic (sum of defensive and aggressive behaviour) behaviour was compared across the experimental groups against the relevant control group by means of Analysis of Variance (ANOVA) (one-factor).

[2] = system: extracellular DA levels in the nucleus accumbens; experiment: Microdialysis: amphetamine-evoked DA levels in the nucleus accumbens of freely moving rats; assay type: in vivo, rat; settings: for Normalised DA level in the nucleus accumbens: compound 8.1 mg/kg s.c., D-amphetamine 0.5 mg/kg s.c. 30 min later
Method: Subjects. Male Sprague-Dawley rats (Charles River), initially weighing 275-300 g, are used.
Surgery. Animals are anaesthetized with hypnorm/dormicum (2 ml/kg s.c.) and intracerebral guide cannulas (CMA/12) are stereotaxically implanted, positioning the dialysis probe tip in the nucleus accumbens (co-ordinates: 1.7 mm anterior to bregma, −1.2 mm lateral to bregma, 8.0 mm ventral to the dura). Anchor screws and acrylic cement is applied for fixation of the guide cannula. The body temperature of the animals is maintained at 37° C. by means of a rectal probe and a heating plate. The rats are allowed to recover from surgery for 2 days, housed singly in cages.
Experimental procedure. On the day of the experiment, a microdialysis probe (CMA/12, 0.5 mm diameter, 2 mm length) is inserted through the guide cannula of the conscious animal. The probes are connected to a microinjection pump via a dual channel swivel which allowed the animals unrestricted movements. Perfusion of the microdialysis probe with filtered Ringer solution (145 mM NaCl, 3 mM KCl, 1 mM MgCl2, 1.2 mM CaCl2) is maintained for the duration of the experiment at a constant flow rate of 1 μL/min. After 180 min of stabilisation, the experiments are initiated. Dialysates are collected every 20 min. After the experiments the rats are sacrificed by decapitation, their brains removed, frozen and sliced for probe placement verification.
Administration of compounds. […] Thirty minutes later, D-amphetamine sulphate (0.5 mg/kg s.c.) is administered.
Analysis of dialysate. The concentration of DA in the dialysates is assessed by means of HPLC with electrochemical detection. The dialysate constituents are separated by reverse phase liquid chromatography (ODS 150×3 mm, […]). Mobile phase consists of 90 mM NaH2PO4, 50 mM sodium citrate, 367 mg/l sodium 1-octanesulfonic acid, 50 μM EDTA and 8% acetonitrile (pH 4.0) at a flow rate of 0.5 ml/min. Electrochemical detection of DA is accomplished using a coulometric detector; potential set at E1=−75 mV and E2=300 mV (guard cell at 350 mV) (Coulochem II, ESA). The dialysate levels of DA in the three dialyse samples preceding the administration of compound are averaged and used as baseline level of DA (100%)
Statistical analysis. The dialysate levels of DA in the three dialyse samples preceding the administration of compound are averaged and used as baseline level of DA (100%). Data are analysed using repeated measure analyses of variance followed by post hoc tests (Tukey test), when appropriate. *P<0.05 were considered significant.

[3] = biological target: T1, noradrenergic α1A receptor (UniProt P18130); experiment: 3H-Prazosin binding assay, receptor expressed in baby hamster kidney cells; settings: read-out: Ki, affinity towards noradrenergic α1A receptors
T1 sequence (P18130 1-466): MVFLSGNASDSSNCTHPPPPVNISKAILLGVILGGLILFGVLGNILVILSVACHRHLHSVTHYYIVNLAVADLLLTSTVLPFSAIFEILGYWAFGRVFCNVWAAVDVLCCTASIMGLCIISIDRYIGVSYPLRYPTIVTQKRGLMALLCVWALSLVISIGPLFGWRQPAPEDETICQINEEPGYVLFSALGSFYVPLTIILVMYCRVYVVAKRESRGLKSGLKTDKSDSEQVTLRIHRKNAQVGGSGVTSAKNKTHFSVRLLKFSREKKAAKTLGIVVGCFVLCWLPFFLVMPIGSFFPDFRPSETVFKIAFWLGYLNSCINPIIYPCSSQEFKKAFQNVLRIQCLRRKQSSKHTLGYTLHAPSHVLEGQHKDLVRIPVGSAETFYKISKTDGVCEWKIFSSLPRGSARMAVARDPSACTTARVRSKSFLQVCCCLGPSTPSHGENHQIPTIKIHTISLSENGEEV

[4] = system: d-amphetamine induced hyperactivity in rats; experiment: Amphetamine-induced hyperactivity in the rat (amphetamine antagonism); assay type: in vivo; settings: read-out: Amphetamine antagonism ED50 (mg/kg) ± std. dev.
Source text: Subjects. Male Wistar rats (Taconic, Denmark) weighing 170-240 g are used. […] Eight rats are used at each dose level and in the parallel control group receiving the vehicle to the test compound plus d-amphetamine and the group receiving vehicle injections only.

[5] = 2 mg/kg s.c. 30 min before test
[6] = 10 mg/kg s.c. 30 min before test

CCOC(=O)Nc1ccc(NCc2ccc(F)cc2)cc1N [Compound 1, reference compound]
% of time Aggressive behaviour [1, 5]: 5.2 % of time
% of time Defensive behaviour [1, 5]: 7.2 % of time
% of time Friendly behaviour [1, 5]: 21.9 % of time
% of time Non-social behaviour [1, 5]: 65.7 % of time
% of time Agonistic behaviour [1, 5]: 12.4 % of time
% of time Aggressive behaviour [1, 6]: 2.4 % of time
% of time Defensive behaviour [1, 6]: 3.7* % of time
% of time Friendly behaviour [1, 6]: 24.7 % of time
% of time Non-social behaviour [1, 6]: 69.2 % of time
% of time Agonistic behaviour [1, 6]: 6.1* % of time
Normalised DA level in the nucleus accumbens ([2]; Time 0 min (baseline sample)): 96 ± 6 % of baseline
Normalised DA level in the nucleus accumbens ([2]; Time 20 min): 160 ± 11 % of baseline
Normalised DA level in the nucleus accumbens ([2]; Time 40 min): 241 ± 33 % of baseline
Normalised DA level in the nucleus accumbens ([2]; Time 60 min): 221 ± 26* % of baseline
Normalised DA level in the nucleus accumbens ([2]; Time 80 min): 217 ± 14* % of baseline
Normalised DA level in the nucleus accumbens ([2]; Time 100 min): 173 ± 9 % of baseline
Normalised DA level in the nucleus accumbens ([2]; Time 120 min): 139 ± 9 % of baseline
Normalised DA level in the nucleus accumbens ([2]; Time 140 min): 120 ± 9 % of baseline
Normalised DA level in the nucleus accumbens ([2]; Time −20 min (baseline sample)): 99 ± 6 % of baseline
Normalised DA level in the nucleus accumbens ([2]; Time −40 min (baseline sample)): 105 ± 3 % of baseline
Effect on the basal extracellular DA level in the nucleus accumbens ([2]; without amphetamine, data not shown): None of the latter three compounds significantly affects the basal extracellular DA level
Ki [3]: 2000 nM
ED50 [4]: 2.3 mg/kg
